Where two headings read alike, the source gives them in different places.
Tests used:
CHO-K1 cells = assay: In vitro mouse micronucleus assay (a test for cytotoxicity); format: cell-based; conditions: 24 hr without S9 and 4 hr with S9, 62 μM-1000 μM
Method: The in vitro mouse micronucleus assay was conducted in CHO-K1 cells seeded in 96-well plates and treated with test compounds for 24 hr (without S9) and for 4 hr (with S9). Cytochalasin B was added after 24 hr, and the cells were incubated for an additional 24 hr, after which the cells were fixed and scored for micronuclei. The assay was run using 6 concentrations in duplicate (62 μM-1000 μM), and data for the highest 5 concentrations that were not cytotoxic were reported. Cellular nuclei and micronuclei were stained, and an automated fluorescent microscopic detection system was used to score micronuclei in approximately 2,000 bi-nucleated cells per concentration.

URAT1 (SLC22A12) = URAT1 (SLC22A12) (Homo sapiens (Human), UniProt Q96S37); assay: URAT1 cellular uptake assay (3H-orotate transport, stably transfected URAT-1/CHO cells); format: cell-based; conditions: 3H-orotate uptake, 7 concentrations 0.01 to 150 μM, read-out: URAT1 IC50 (μM ± SEM)
Method: URAT1 (SLC22A12) activity was evaluated in a cellular uptake assay using a 96-well plate with stably transfected URAT-1/CHO cells. ^3H-orotate was used as the test transport agent, which was measured in a liquid scintillation counter, using benzbromarone as a positive control, and DMSO and non-transfected CHO cells as negative controls (Solvo Biotechnology, Boston, Mass.).

xanthine oxidase [1] = target: T1, xanthine oxidase (Homo sapiens (Human), UniProt P47989); assay: Fluorescence-based xanthine oxidase activity assay; format: biochemical; conditions: triplicate, 10 concentrations
Method: Xanthine oxidase inhibition was determined using a standard fluorescence-based assay for xanthine oxidase activity (McHale A, Grimes H, Coughlan M P: Int J Biochem. 10:317-9, 1979) with minor variations. […] Experiments on test compounds were performed in triplicate in multi-well plates using 10 concentrations of each compound that ranged over a 3-fold dilution.

xanthine oxidase [2] = target: T1, xanthine oxidase; conditions: data taken from publications; cited from earlier work

URAT1 (SLC22A12), sequence (Q96S37 whole entry): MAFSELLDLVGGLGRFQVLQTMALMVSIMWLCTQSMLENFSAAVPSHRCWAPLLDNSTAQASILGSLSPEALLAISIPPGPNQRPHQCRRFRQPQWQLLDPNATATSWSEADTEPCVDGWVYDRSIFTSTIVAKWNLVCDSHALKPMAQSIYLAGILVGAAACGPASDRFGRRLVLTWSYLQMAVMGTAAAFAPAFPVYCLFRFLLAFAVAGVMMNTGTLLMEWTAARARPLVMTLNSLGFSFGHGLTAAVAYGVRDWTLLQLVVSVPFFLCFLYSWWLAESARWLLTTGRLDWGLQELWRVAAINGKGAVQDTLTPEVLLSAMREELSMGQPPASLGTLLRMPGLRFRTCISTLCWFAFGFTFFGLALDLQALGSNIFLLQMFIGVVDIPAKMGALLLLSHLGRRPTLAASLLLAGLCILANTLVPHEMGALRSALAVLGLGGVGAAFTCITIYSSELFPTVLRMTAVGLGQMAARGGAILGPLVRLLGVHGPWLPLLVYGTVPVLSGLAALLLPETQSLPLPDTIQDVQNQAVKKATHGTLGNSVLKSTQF
T1 sequence (P47989 whole entry, species assumed): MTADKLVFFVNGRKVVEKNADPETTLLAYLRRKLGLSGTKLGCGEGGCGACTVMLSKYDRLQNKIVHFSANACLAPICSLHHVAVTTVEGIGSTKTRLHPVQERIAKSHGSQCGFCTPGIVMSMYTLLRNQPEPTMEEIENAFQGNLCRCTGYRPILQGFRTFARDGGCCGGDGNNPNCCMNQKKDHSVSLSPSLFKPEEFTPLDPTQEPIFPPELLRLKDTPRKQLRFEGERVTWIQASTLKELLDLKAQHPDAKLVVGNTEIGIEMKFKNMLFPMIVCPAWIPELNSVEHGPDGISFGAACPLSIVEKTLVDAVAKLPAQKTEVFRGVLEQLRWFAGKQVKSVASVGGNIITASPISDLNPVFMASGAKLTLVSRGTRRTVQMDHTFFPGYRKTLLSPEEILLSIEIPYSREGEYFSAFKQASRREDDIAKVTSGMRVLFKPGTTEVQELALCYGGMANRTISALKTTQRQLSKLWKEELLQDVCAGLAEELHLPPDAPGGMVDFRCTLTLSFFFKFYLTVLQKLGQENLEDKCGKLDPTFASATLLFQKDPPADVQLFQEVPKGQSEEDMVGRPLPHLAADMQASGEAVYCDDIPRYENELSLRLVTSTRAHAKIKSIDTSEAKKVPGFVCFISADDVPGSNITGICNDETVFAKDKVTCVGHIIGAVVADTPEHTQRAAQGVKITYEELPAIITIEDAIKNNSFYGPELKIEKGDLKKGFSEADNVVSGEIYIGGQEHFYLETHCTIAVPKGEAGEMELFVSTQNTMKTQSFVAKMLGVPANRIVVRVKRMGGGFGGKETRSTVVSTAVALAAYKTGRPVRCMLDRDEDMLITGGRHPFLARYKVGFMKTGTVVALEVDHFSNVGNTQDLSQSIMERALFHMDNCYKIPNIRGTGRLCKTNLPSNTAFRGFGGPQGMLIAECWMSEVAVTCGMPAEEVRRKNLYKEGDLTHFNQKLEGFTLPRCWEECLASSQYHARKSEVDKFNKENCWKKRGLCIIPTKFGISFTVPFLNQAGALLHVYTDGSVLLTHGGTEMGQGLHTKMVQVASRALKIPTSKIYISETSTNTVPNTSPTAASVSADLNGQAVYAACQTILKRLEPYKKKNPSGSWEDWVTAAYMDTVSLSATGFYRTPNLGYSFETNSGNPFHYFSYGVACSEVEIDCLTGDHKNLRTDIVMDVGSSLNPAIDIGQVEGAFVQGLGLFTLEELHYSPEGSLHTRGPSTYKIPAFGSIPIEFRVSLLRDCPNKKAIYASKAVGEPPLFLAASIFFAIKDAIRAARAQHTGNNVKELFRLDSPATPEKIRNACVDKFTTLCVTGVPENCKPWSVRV

| Structure (SMILES) | Mouse Micronucleus (CHO-K1 cells) | IC50 (URAT1 (SLC22A12)) | IC50 (xanthine oxidase [1]) | IC50 (xanthine oxidase [2]) |
| --- | --- | --- | --- | --- |
| O=C1NC(=S)NC(=O)C1C(=O)Nc1ccccc1 [Merbarone, 5-(N-phenylcarboxamido)-2-thio-barbituric acid, reference compound] | Positive | 5.4 ± 1 µM | 274 µM |  |
| O=C(Nc1ccc(O)cc1)c1c(O)[nH]c(=S)[nH]c1=O [4′-hydroxymerbarone, 1,2,3,4-tetrahydro-6-hydroxy-2-thioxo-4-oxo-N-(4′-hydroxyphenyl)-5-pyrimidinecarboxamide] | Negative | 9.4 ± 0.6 µM | 0.68 µM |  |
| O=C(Nc1ccc(O)cc1)c1c(O)[nH]c(=O)[nH]c1=O [4′-hydroxy-2-oxo-desthiomerbarone, 1,2,3,4-tetrahydro-6-hydroxy-2,4-dioxo-N-(4′-hydroxyphenyl)-5-pyrimidinecarboxamide] | Negative | 2.6 ± 0.6 µM | 1.06 µM |  |
| O=C(O)CSc1nnc(Br)n1-c1ccc(C2CC2)c2ccccc12 [Lesinurad, lesinurad] |  |  |  | > 300 µM |
| O=C(Nc1ccccc1)c1c(O)[nH]c(=O)[nH]c1=O [2-oxo-desthiomerbarone, 1,2,3,4-tetrahydro-6-hydroxy-2,4-dioxo-N-phenyl-5-pyrimidinecarboxamide] | Positive | 1.2 µM | > 300 µM |  |

— patent publication US9428466B2, “Methods for reducing uric acid levels using barbiturate derivatives” (priority 2013, dated 2016)
